Marks after values point to notes of the source that are not given here.
Tests used:
[1] = tested on: O=C(Cc1cccs1)N[C@@H]1C(=O)N2C(C(=O)O)=C(C=Cc3ccc([N+](=O)[O-])cc3[N+](=O)[O-])CS[C@H]12; test: purified protein, by the assay type; details: pH 7.0; 37.0 °C
HMS-1 [2] = test: Competitive assay with nitrocefin (RSAI); type: biochemical, E. coli 1946
PSE-3 [3] = test: Competitive assay with nitrocefin (RSAI); type: biochemical, Ps.aerug. 1920E
PSE-4 [4] = target: T1, PSE-4 (Pseudomonas aeruginosa, UniProt P16897); test: Competitive assay with nitrocefin (RSAI); type: biochemical, Ps.aerug. 1559E; design: Normally, therefore, the beta-lactamase has to be extracted from the cells for the purpose of the present invention; endogenous in cells
PSE-3 [5] = test: 6-well visual test with nitrocefin; details: 3 minutes, room temperature
K1073 = test: Competitive assay with nitrocefin (RSAI); type: biochemical, Klebsiella 1073
Text: (§1) It is convenient to express the results in terms of a Relative Substrate Affinity Index (RSAI) value.
(§2) RSAI = Concentration of competing substrate which gives 50% inhibition of ring-opening hydrolysis of the chromogenic substrate
(§3) Concentration of chromogenic substrate in the assay A high RSAI value therefore indicates a low affinity of the beta-lactamase for that competing substrate, and therefore predicts resistance of a beta-lactam competing substrate to hydrolysis by the beta-lactamase. Low RSAI values, in contrast, predict sensitivity to hydrolysis by a beta-lactamase.
(§4) Beta-lactam antibiotics which bind to the TEM-2 enzyme compete with nitrocefin in the assay. […] . This concentration of ampicillin is a direct estimate of the relative affinity of the TEM-2 enzyme for ampicillin. […] . The RSAI value was therefore 1.3.

PSE-4 [6] = target: T1, PSE-4; test: 6-well visual test with nitrocefin; details: 3 minutes, room temperature
TEM-1 [7] = target: T2, TEM-1 (Escherichia coli, UniProt P62593); test: Competitive assay with nitrocefin (RSAI); type: biochemical, E. coli 2136E; design: the beta-lactamase has to be extracted from the cells for the purpose of the present invention; made in house; host or cells: E. coli 2136E (plasmid-bearing strain; crude cell extract)
K10317 = test: Competitive assay with nitrocefin (RSAI); type: biochemical, K.aerog. 10317
Text: as §1, §2, §3, §4

OXA-2 [8] = target: T3, OXA-2 (Escherichia coli, UniProt P0A1V9); test: Competitive assay with nitrocefin (RSAI); type: biochemical, E. coli R46; design: the beta-lactamase has to be extracted from the cells for the purpose of the present invention; made in house; host or cells: E. coli carrying R46 according to the earlier reading (crude cell extract)
TEM-2 [9] = target: T4, TEM-2 (Escherichia coli, UniProt P62593, Q37K); test: Competitive assay with nitrocefin (RSAI); type: biochemical, E. coli 1725E
Text: as §1, §2, §3, §4

OXA-1 [10] = target: T5, OXA-1 (Escherichia coli, UniProt P13661); test: 6-well visual test with nitrocefin; details: 3 minutes, room temperature
TEM-1 [11] = target: T2, TEM-1; test: 6-well visual test with nitrocefin; details: 3 minutes, room temperature
K17 = test: Competitive assay with nitrocefin (RSAI); type: biochemical, Klebsiella 17
Text: as §1, §2, §3, §4

[12] = target: Chromosomal, hyper-induced beta-lactamase enzyme (Escherichia coli, UniProt P00811); test: Competitive assay with nitrocefin (RSAI); type: biochemical, E. coli SNU35; design: Normally, therefore, the beta-lactamase has to be extracted from the cells for the purpose of the present invention; endogenous in cells; host or cells: E. coli SNU 35 (artificially produced strain)
TEM-2 [13] = target: T4, TEM-2; test: 6-well visual test with nitrocefin; details: 3 minutes, room temperature
PSE-1 [14] = target: T6, PSE-1 (Pseudomonas aeruginosa, UniProt Q03170); test: 6-well visual test with nitrocefin; details: 3 minutes, room temperature
HMS-1 [15] = test: 6-well visual test with nitrocefin; details: 3 minutes, room temperature
PSE-2 [16] = target: T7, PSE-2 (Pseudomonas aeruginosa, UniProt P14489); test: Competitive assay with nitrocefin (RSAI); type: biochemical, Ps.aerug. 1973E; design: Normally, therefore, the beta-lactamase has to be extracted from the cells for the purpose of the present invention; endogenous in cells
[17] = target: T8, Chromosomal, induced beta-lactamase enzyme (Pseudomonas aeruginosa, UniProt P24735); test: Competitive assay with nitrocefin (RSAI); type: biochemical, Ps.aerug. 1937E + ampicillin
T8 construct: Normally, therefore, the beta-lactamase has to be extracted from the cells for the purpose of the present invention; endogenous in cells; host or cells: Pseudomonas aeruginosa 1937E grown with ampicillin

OXA-1 [18] = target: T5, OXA-1; test: Competitive assay with nitrocefin (RSAI); type: biochemical, E. coli 1527E; design: the beta-lactamase has to be extracted from the cells for the purpose of the present invention; made in house; host or cells: E. coli 1527E according to the earlier reading (crude cell extract)
Ps +AMP (Chromosomal) = Ps +AMP (Chromosomal) (Pseudomonas aeruginosa, UniProt P24735); test: 6-well visual test with nitrocefin; details: 3 minutes, room temperature
PSE-2 [19] = target: T7, PSE-2; test: 6-well visual test with nitrocefin; details: 3 minutes, room temperature
SHV-1 [20] = target: T9, SHV-1 (Escherichia coli, UniProt P0AD63); test: Competitive assay with nitrocefin (RSAI); type: biochemical, E. coli 2008E; design: the beta-lactamase has to be extracted from the cells for the purpose of the present invention; made in house; host or cells: E. coli 2008E (crude cell extract)
OXA-2 [21] = target: T3, OXA-2; test: 6-well visual test with nitrocefin; details: 3 minutes, room temperature
E. cloacae = E. cloacae (Enterobacter cloacae, UniProt P05364); test: 6-well visual test with nitrocefin; details: 3 minutes, room temperature
OXA-3 [22] = target: T10, OXA-3 (Pseudomonas aeruginosa, UniProt Q51429); test: Competitive assay with nitrocefin (RSAI); type: biochemical, E. coli R57B; design: Normally, therefore, the beta-lactamase has to be extracted from the cells for the purpose of the present invention; endogenous in cells
PSE-1 [23] = target: T6, PSE-1; test: Competitive assay with nitrocefin (RSAI); type: biochemical, Ps.aerug. 1937E; design: Normally, therefore, the beta-lactamase has to be extracted from the cells for the purpose of the present invention; endogenous in cells
[24] = target: T11, Chromosomal, constitutive beta-lactamase enzyme (Enterobacter cloacae, UniProt P05364); test: Competitive assay with nitrocefin (RSAI); type: biochemical, E. cloacae
T11 construct: Normally, therefore, the beta-lactamase has to be extracted from the cells for the purpose of the present invention; endogenous in cells

OXA-3 [25] = target: T10, OXA-3; test: 6-well visual test with nitrocefin; details: 3 minutes, room temperature
SHV-1 [26] = target: T9, SHV-1; test: 6-well visual test with nitrocefin; details: 3 minutes, room temperature
TEM-2 beta-lactamase = TEM-2 beta-lactamase (Escherichia coli, UniProt P62593, Q37K); type: biochemical, E. coli C9 RP4
[27] = well D: Mecillinam 20:1 to nitrocefin
[28] = well C: Cefamandole 1:1 to nitrocefin
[29] = well B: Cefotaxime 100:1 to nitrocefin

| Compound | RSAI (HMS-1 [2]) | RSAI (PSE-3 [3]) | RSAI (PSE-4 [4]) | RSAI (K1073) | RSAI (TEM-1 [7]) | RSAI (K10317) | RSAI (OXA-2 [8]) | RSAI (TEM-2 [9]) | RSAI (K17) | RSAI [12] | RSAI (PSE-2 [16]) | RSAI [17] | RSAI (OXA-1 [18]) | RSAI (SHV-1 [20]) | RSAI (OXA-3 [22]) | RSAI (PSE-1 [23]) | RSAI [24] | other results |
| --- | --- | --- | --- | --- | --- | --- | --- | --- | --- | --- | --- | --- | --- | --- | --- | --- | --- | --- |
| (Pseudomonas aeruginosa) |  |  |  |  |  |  |  |  |  |  |  |  |  |  |  |  |  | Km [1]: 28 µg/mL |
| CC1(C)S[C@@H]2[C@H](/N=C/N3CCCCCC3)C(=O)N2[C@H]1C(=O)O [Mecil-linam, Mecillinam] | 2 | 15 | 140 | 102 | 90 | 80 | 100 | 80 | 260 | 0.7* | 450 | 68 | 400 | 80 | 30 | 66 | 1.3* | Score in 6-well visual test (PSE-3 [5]; [27]): +; Score in 6-well visual test (PSE-4 [6]; [27]): ++; Score in 6-well visual test (OXA-1 [10]; [27]): ++; Score in 6-well visual test (TEM-1 [11]; [27]): ++; Score in 6-well visual test (TEM-2 [13]; [27]): ++; Score in 6-well visual test (PSE-1 [14]; [27]): ++; Score in 6-well visual test (HMS-1 [15]; [27]): -; Score in 6-well visual test (Ps +AMP (Chromosomal); [27]): +; Score in 6-well visual test (PSE-2 [19]; [27]): ++; Score in 6-well visual test (OXA-2 [21]; [27]): +; Score in 6-well visual test (E. cloacae; [27]): -; Score in 6-well visual test (OXA-3 [25]; [27]): +; Score in 6-well visual test (SHV-1 [26]; [27]): ++ |
| CC1(C)S[C@@H]2[C@H](NC(=O)[C@H](N)c3ccccc3)C(=O)N2[C@H]1C(=O)O [Ampi-cillin, ampicillin] | 0.5 | 1.7 | 2.7 | 6.7 | 4 | 9.4 | 10 | 2.6 | 2.9 | 0.03* | 0.85 | 0.12 | 4 | 3 | 0.2 | 0.4 | 0.02 | RSAI (TEM-2 beta-lactamase; without pre-incubation, nitrocefin 50 micrograms/ml, after 4.5 minutes, 37°C): 1.3 |
| Cc1onc(-c2ccccc2Cl)c1C(=O)N[C@@H]1C(=O)N2[C@@H]1SC(C)(C)[C@@H]2C(=O)O [Cloxacillin] | 0.02 | 0.24 | 3.3 | 4* | 0.75 | 3.7* | 30 | 0.5 | 14 | 0.0000016* | 4.5 | 0.00017 | 0.6 | 2 | 0.01 | 2 | 0.00004 | nature of the binding to the enzyme (TEM-2 beta-lactamase; from kinetics of nitrocefin cleavage): does not undergo irreversible binding |
| Cn1nnnc1SCC1=C(C(=O)O)N2C(=O)[C@@H](NC(=O)[C@H](O)c3ccccc3)[C@H]2SC1 [Cefaman-dole, Cefamandole] | 0.5 | 0.006 | 9 | 3.9 | 11 | 5 | 1.7 | 11 | 1.8 | 0.12* | 0.06 | 5 | 1.5 | 6.6 | 0.75 | 6.9 | 0.03 | Score in 6-well visual test (PSE-3 [5]; [28]): -; Score in 6-well visual test (PSE-4 [6]; [28]): ++; Score in 6-well visual test (OXA-1 [10]; [28]): ++; Score in 6-well visual test (TEM-1 [11]; [28]): ++; Score in 6-well visual test (TEM-2 [13]; [28]): ++; Score in 6-well visual test (PSE-1 [14]; [28]): ++; Score in 6-well visual test (HMS-1 [15]; [28]): +; Score in 6-well visual test (Ps +AMP (Chromosomal); [28]): +; Score in 6-well visual test (PSE-2 [19]; [28]): -; Score in 6-well visual test (OXA-2 [21]; [28]): +; Score in 6-well visual test (E. cloacae; [28]): -; Score in 6-well visual test (OXA-3 [25]; [28]): +; Score in 6-well visual test (SHV-1 [26]; [28]): ++ |
| CO/N=C(\C(=O)N[C@@H]1C(=O)N2C(C(=O)O)=C(COC(C)=O)CS[C@H]12)c1csc(N)n1 [Cefotaxime] | 11 | 100 | 50 | 330 | 400 | 320 | 12 | 600 | 60 | 0.004 | 9.6 | 0.004 | 9 | 400 | 15 | 70 | 0.0006 | Score in 6-well visual test (PSE-3 [5]; [29]): +; Score in 6-well visual test (PSE-4 [6]; [29]): +; Score in 6-well visual test (OXA-1 [10]; [29]): -; Score in 6-well visual test (TEM-1 [11]; [29]): ++; Score in 6-well visual test (TEM-2 [13]; [29]): ++; Score in 6-well visual test (PSE-1 [14]; [29]): +; Score in 6-well visual test (HMS-1 [15]; [29]): -; Score in 6-well visual test (Ps +AMP (Chromosomal); [29]): -; Score in 6-well visual test (PSE-2 [19]; [29]): -; Score in 6-well visual test (OXA-2 [21]; [29]): -; Score in 6-well visual test (E. cloacae; [29]): -; Score in 6-well visual test (OXA-3 [25]; [29]): -; Score in 6-well visual test (SHV-1 [26]; [29]): ++ |

Reference: patent publication EP0059645A1, “Method and kit for identification of beta-lactamases” (NATIONAL RESEARCH DEVELOPMENT CORPORATION, priority 1981, dated 1982)
